Where two headings read alike, the source gives them in different places.
Target: GDP-bound KRAS protein (aa 1-169), containing both G12C and C118A amino acid substitutions (Homo sapiens, UniProt P01116, C118A/G12C)
Assay: Coupled nucleotide exchange assay (SOS-mediated, AlphaScreen)
Assay type: biochemical
Conditions: for IC50: read-out: Coupled exchange IC50 (5 min)

Chain of GDP-bound KRAS protein (aa 1-169), containing both G12C and C118A amino acid substitutions (P01116 1-169 isoform P01116-2 G12C/C118A): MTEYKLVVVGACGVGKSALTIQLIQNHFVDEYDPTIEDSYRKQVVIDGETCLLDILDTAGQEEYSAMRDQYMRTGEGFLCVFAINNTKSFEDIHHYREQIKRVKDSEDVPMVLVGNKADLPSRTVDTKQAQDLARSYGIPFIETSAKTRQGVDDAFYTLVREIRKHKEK

Compound	Coupled exchange IC50 (5 min) (5 min compound pre-incubation)	other results
C=CC(=O)N1CCN(c2nc(=O)n(-c3ccccc3C(C)C)c3nc(Cl)c(Cl)cc23)[C@@H](C)C1 (atropisomer, axis not shown; (M)) [Example 61-1-1, (M)-6,7-Dichloro-4-((2S)-2-methyl-4-(2-propenoyl)-1-piperazinyl)-1-(2-(2-propanyl)phenyl)pyrido[2,3-d]pyrimidin-2(1H)-one]	2.94 | nda μM	
C=CC(=O)N1CCN(c2nc(=O)n(-c3c(C)ccnc3C(C)C)c3nc(Cl)c(Cl)cc23)[C@@H](C)C1 (atropisomer, axis not shown; (M)) [Example 61-2-2, (M)-6,7-dichloro-1-(4-methyl-2-(2-propanyl)-3-pyridinyl)-4-((2S)-2-methyl-4-(2-propenoyl)-1-piperazinyl)pyrido[2,3-d]pyrimidin-2(1H)-one]	2.37 | nda μM	
C=CC(=O)N1CCN(c2nc(=O)n(-c3c(C)ccnc3C(C)C)c3nc(-c4nc(N)ccc4F)c(F)cc23)[C@@H](C)C1 (atropisomer, axis not shown; (M)) [Example 65-2, (M)-7-(6-amino-3-fluoro-2-pyridinyl)-6-fluoro-1-(4-methyl-2-(2-propanyl)-3-pyridinyl)-4-((2S)-2-methyl-4-(2-propenoyl)-1-piperazinyl)pyrido[2,3-d]pyrimidin-2(1H)-one]	1.31 | nda μM	
C=CC(=O)N1CCN(c2nc(=O)n(-c3c(C)ccnc3C(C)C)c3nc(-c4cc(F)ccc4O)c(F)cc23)C(C)C1 (atropisomer, axis not shown; (M)) [Example 72-1, (M)-6-Fluoro-7-(5-fluoro-2-hydroxyphenyl)-1-(4-methyl-2-(2-propanyl)-3-pyridinyl)-4-((2S)-2-methyl-4-(2-propenoyl)-1-piperazinyl)pyrido[2,3-d]pyrimidin-2(1H)-one]	1.17 | nda μM	
C=CC(=O)N1CCN(c2nc(=O)n(-c3c(C)ccnc3C(C)C)c3nc(-c4cccc(F)c4O)c(F)cc23)[C@@H](C)C1 (atropisomer, axis not shown; (M)) [Example 72-3, (M)-6-fluoro-7-(3-fluoro-2-hydroxyphenyl)-1-(4-methyl-2-(2-propanyl)-3-pyridinyl)-4-((2S)-2-methyl-4-(2-propenoyl)-4-piperazinyl)pyrido[2,3-d]pyrimidin-2(1H)-one]	3.29 | nda μM	
C=CC(=O)N1CCN(c2nc(=O)n(-c3c(C)ccnc3C(C)C)c3nc(-c4cccc(O)c4F)c(F)cc23)[C@@H](C)C1 (atropisomer, axis not shown; (M)) [Example 72-5, (M)-6-fluoro-7-(2-fluoro-3-hydroxyphenyl)-1-(4-methyl-2-(2-propanyl)-3-pyridinyl)-4-((2S)-2-methyl-4-(2-propenoyl)-1-piperazinyl)pyrido[2,3-d]pyrimidin-2(1H)-one]	2.91 | nda μM	
C=CC(=O)N1C[C@H](C)N(c2nc(=O)n(-c3c(C)ccnc3C(C)C)c3nc(Cl)c(F)cc23)[C@@H](C)C1 (atropisomer, axis not shown; (M)) [Example 72-12, (M)-7-chloro-4-((2S,6S)-2,6-dimethyl-4-(2-propenoyl)-1-piperazinyl)-6-fluoro-1-(4-methyl-2-(2-propanyl)-3-pyridinyl)pyrido[2,3-d]pyrimidin-2(1H)-one]	4.51 | nda μM	
C=CC(=O)N1C[C@@H](C)N(c2nc(=O)n(-c3c(C)ccnc3C(C)C)c3nc(Cl)c(Cl)cc23)[C@@H](C)C1 (atropisomer, axis not shown; (M)) [Example 73-11, (M)-6,7-dichloro-4-(cis-2,6-dimethyl-4-(2-propenoyl)-1-piperazinyl)-1-(4-methyl-2-(2-propanyl)-3-pyridinyl)pyrido[2,3-d]pyrimidin-2(1H)-one]	0.625 | nda μM	
C=CC(=O)N1C[C@H](C)N(c2nc(=O)n(-c3c(C)ccnc3C(C)C)c3nc(Cl)c(Cl)cc23)[C@@H](C)C1 (atropisomer, axis not shown; (M)) [Example 73-14, (M)-6,7-dichloro-4-((2S,6S)-2,6-dimethyl-4-(2-propenoyl)-1-piperazinyl)-1-(4-methyl-2-(2-propanyl)-3-pyridinyl)pyrido[2,3-d]pyrimidin-2(1H)-one]	0.711 | nda μM	
C=CC(=O)N1C[C@@H](C)N(c2nc(=O)n(-c3c(C)ccnc3C(C)C)c3nc(-c4c(N)cccc4F)c(Cl)cc23)[C@H](C)C1 (atropisomer, axis not shown; (M)) [Example 73-18, (M)-7-(2-amino-6-fluorophenyl)-6-chloro-4-((2R,6R)-2,6-dimethyl-4-(2-propenoyl)-1-piperazinyl)-1-(4-methyl-2-(2-propanyl)-3-pyridinyl)pyrido[2,3-d]pyrimidin-2(1H)-one]	5.54 | nda μM	
C=CC(=O)N1C[C@@H](C)N(c2nc(=O)n(-c3c(C)ccnc3C(C)C)c3nc(-c4c(O)cccc4F)c(Cl)cc23)[C@H](C)C1 (atropisomer, axis not shown; (M)) [Example 73-19, (M)-6-chloro-4-((2R,6R)-2,6-dimethyl-4-(2-propenoyl)-1-piperazinyl)-7-(2-fluoro-6-hydroxyphenyl)-1-(4-methyl-2-(2-propanyl)-3-pyridinyl)pyrido[2,3-d]pyrimidin-2(1H)-one]	7.55 | nda μM	
C=CC(=O)N1CC(Nc2nc(=O)n(-c3c(C)ccnc3C(C)C)c3nc(-c4ccccc4F)c(Cl)cc23)C1 (atropisomer, axis not shown; (M)) [Example 76-1, (M)-6-Chloro-7-(2-fluorophenyl)-1-(4-methyl-2-(2-propanyl)-3-pyridinyl)-4-((1-(2-propenoyl)-3-azetidinyl)amino)pyrido[2,3-d]pyrimidin-2(1H)-one]		IC50 (5 min compound pre-incubation): 117000 nM
C=CC(=O)N1CC(Oc2nc(=O)n(-c3c(C)ccnc3C(C)C)c3nc(-c4ccccc4F)c(Cl)cc23)C1 (atropisomer, axis not shown; (M)) [Example 79-1, (M)-6-Chloro-7-(2-fluorophenyl)-1-(4-methyl-2-(2-propanyl)-3-pyridinyl)-4-((1-(2-propenoyl)-3-azetidinyl)oxy)pyrido[2,3-d]pyrimidin-2(1H)-one]		IC50 (5 min compound pre-incubation): 3290 nM
C=CC(=O)N1CCN(c2nc(=O)n(-c3c(C)cccc3C(C)C)c3nc(Cl)c(Cl)cc23)[C@@H](C)C1 (atropisomer, axis not shown; (M)) [Example 112, (M)-6,7-Dichloro-1-(2-methyl-6-(2-propanyl)phenyl)-4-((2S)-2-methyl-4-(2-propenoyl)-1-piperazinyl)pyrido[2,3-d]pyrimidin-2(1H)-one]		IC50 (5 min compound pre-incubation): 2450 nM
C=CC(=O)N1[C@@H]2C[C@H]1CN(c1nc(=O)n(-c3c(C)ccnc3C(C)C)c3nc(-c4ccccc4F)c(Cl)cc13)C2 (atropisomer, axis not shown; (M)) [Example 135, (M)-6-Chloro-7-(2-fluorophenyl)-1-(4-methyl-2-(2-propanyl)-3-pyridinyl)-4-((1R,5S)-6-(2-propenoyl)-3,6-diazabicyclo[3.1.1]heptan-3-yl)pyrido[2,3-d]pyrimidin-2(1H)-one]		Coupled exchange IC50 (5 min): 3.32 | nda μM
C=CC(=O)N1CCN(c2nc(=O)n(-c3ccccc3C(C)C)c3nc(Cl)c(Cl)cc23)[C@@H](C)C1 (atropisomer, axis not shown; (P)) [Example 61-1-2, (P)-6,7-dichloro-4-((2S)-2-methyl-4-(2-propenoyl)-1-piperazinyl)-1-(2-(2-propanyl)phenyl)pyrido[2,3-d]pyrimidin-2(1H)-one]	20.6 | nda μM	
C=CC(=O)N1CCN(c2nc(=O)n(-c3c(C)ccnc3C(C)C)c3nc(Cl)c(Cl)cc23)[C@@H](C)C1 (atropisomer, axis not shown; (P)) [Example 61-2-1, (P)-6,7-dichloro-1-(4-methyl-2-(2-propanyl)-3-pyridinyl)-4-((2S)-2 methyl-4-(2-propenoyl)-1-piperazinyl)pyrido[2,3-d]pyrimidin-2(1H)-one]	8.24 | nda μM	
C=CC(=O)N1CCN(c2nc(=O)n(-c3c(C(C)C)ncc(O)c3C)c3nc(-c4ccccc4F)c(Cl)cc23)[C@@H](C)C1 (atropisomer, axis not shown; (P)) [Example 83-1, (P)-6-Chloro-7-(2-fluorophenyl)-1-(5-hydroxy-4-methyl-2-(2-propanyl)-3-pyridinyl)-4-((2S)-2-methyl-4-(2-propenoyl)-1-piperaninyl)pyrido[2,3-d]pyrimidin-2(1H)-one]		IC50 (5 min compound pre-incubation): 548 nM
C=CC(=O)N1CCN(c2nc(=O)n(-c3c(CO)ccnc3C(C)C)c3nc(-c4ccccc4F)c(Cl)cc23)C(C)C1 (atropisomer, axis not shown; (P)) [Example 84-1, (P)-6-chloro-7-(2-fluorophenyl)-1-(4-(hydroxymethyl)-2-(2-propanyl)-3-pyridinyl)-4-((2S)-2-methyl-4-(2-propenoyl)-1-piperazinyl)pyrido[2,3-d]pyrimidin-2(1H)-one]	2.71 | nda μM	
C=CC(=O)N1CCC(Oc2nc(=O)n(-c3c(C)ccnc3C(C)C)c3nc(-c4ccccc4F)c(Cl)cc23)C1 (racemic) [Example 79-2, (M)-6-chloro-7-(2-fluorophenyl)-1-(4-methyl-2-(2-propanyl)-3-pyridinyl)-4-((1-(2-propenoyl)-3-pyrrolidinyl)oxy)pyrido[2,3-d]pyrimidin-2(1H)-one]	28.6 | nda μM	
C=CC(=O)N1CCN(c2nc(=O)n(-c3ccccc3C3CCC3)c3nc(-c4c(O)cccc4F)c(Cl)cc23)[C@@H](C)C1 (single isomer, unassigned) [Example 54-10-1]	1.21 | nda μM	
C=CC(=O)N1CCN(c2nc(=O)n(-c3ccccc3C(C)C)c3nc(-c4cc(OC(F)F)ccc4F)c(Cl)cc23)[C@@H](C)C1 (single isomer, unassigned) [Example 54-51-2]	1.84 | nda μM	
C=CC(=O)N1CCN(c2nc(=O)n(-c3ccccc3S(C)(=O)=O)c3nc(-c4c(O)cccc4F)c(Cl)cc23)[C@@H](C)C1 (single isomer, unassigned) [Example 54-56-2]	1.24 | nda μM	
C=CC(=O)N1CCN(c2nc(=O)n(-c3ccccc3C(C)C)c3nc(C4=CCCCC4)c(Cl)cc23)[C@@H](C)C1 (single isomer, unassigned) [Example 54-75-2]	10.6 | nda μM	
